Patent US11439641B2, “Pyrimidine JAK inhibitors for the treatment of skin diseases” (THERAVANCE BIOPHARMA R&D IP, LLC, priority 2019, dated 2022)

How the values were obtained:
[1] = target: JAK1 (Homo sapiens (Human), UniProt P23458); experiment: Biochemical JAK and Tyk2 Kinase Assays (LanthaScreen), JAK1; conditions: 25 μM ATP (Km); pIC50 converted to pKi by Cheng-Prusoff
Protocol: (§1) Assay 1: Biochemical JAK and Tyk2 Kinase Assays
(§2) A panel of four LanthaScreen JAK biochemical assays (JAK1, 2, 3 and Tyk2) were carried in a common kinase reaction buffer (50 mM HEPES, pH 7.5, 0.01% Brij-35, 10 mM MgCl2, and 1 mM EGTA). Recombinant GST-tagged JAK enzymes and a GFP-tagged STAT1 peptide substrate were obtained from Life Technologies.
(§3) Serially or discretely diluted compounds were pre-incubated with each of the four JAK enzymes and the substrate in white 384-well microplates (Corning) at ambient temperature for 1 h. ATP was subsequently added to initiate the kinase reactions in 10 μL total volume, with 1% DMSO. The final enzyme concentrations for JAK1, 2, 3 and Tyk2 are 4.2 nM, 0.1 nM, 1 nM, and 0.25 nM respectively; the corresponding Km ATP concentrations used are 25 μM, 3 μM, 1.6 μM, and 10 μM; while the substrate concentration is 200 nM for all four assays. Kinase reactions were allowed to proceed for 1 hour at ambient temperature before a 10 μL preparation of EDTA (10 mM final concentration) and Tb-anti-pSTAT1 (pTyr701) antibody (Life Technologies, 2 nM final concentration) in TR-FRET dilution buffer (Life Technologies) was added. The plates were allowed to incubate at ambient temperature for 1 h before being read on the EnVision reader (Perkin Elmer). Emission ratio signals (520 nm/495 nm) were recorded and utilized to calculate the percent inhibition values based on DMSO and background controls.
(§4) For dose-response analysis, percent inhibition data were plotted vs. compound concentrations, and IC50 values were determined from a 4-parameter robust fit model with the Prism software (GraphPad Software). Results were expressed as pIC50 (negative logarithm of IC50) and subsequently converted to pKi (negative logarithm of dissociation constant, Ki) using the Cheng-Prusoff equation.

[2] = target: JAK3 (Homo sapiens (Human), UniProt P52333); experiment: Biochemical JAK and Tyk2 Kinase Assays (LanthaScreen), JAK3; conditions: 1.6 μM ATP (Km); pIC50 converted to pKi by Cheng-Prusoff
Chain of JAK3 (P52333 whole entry): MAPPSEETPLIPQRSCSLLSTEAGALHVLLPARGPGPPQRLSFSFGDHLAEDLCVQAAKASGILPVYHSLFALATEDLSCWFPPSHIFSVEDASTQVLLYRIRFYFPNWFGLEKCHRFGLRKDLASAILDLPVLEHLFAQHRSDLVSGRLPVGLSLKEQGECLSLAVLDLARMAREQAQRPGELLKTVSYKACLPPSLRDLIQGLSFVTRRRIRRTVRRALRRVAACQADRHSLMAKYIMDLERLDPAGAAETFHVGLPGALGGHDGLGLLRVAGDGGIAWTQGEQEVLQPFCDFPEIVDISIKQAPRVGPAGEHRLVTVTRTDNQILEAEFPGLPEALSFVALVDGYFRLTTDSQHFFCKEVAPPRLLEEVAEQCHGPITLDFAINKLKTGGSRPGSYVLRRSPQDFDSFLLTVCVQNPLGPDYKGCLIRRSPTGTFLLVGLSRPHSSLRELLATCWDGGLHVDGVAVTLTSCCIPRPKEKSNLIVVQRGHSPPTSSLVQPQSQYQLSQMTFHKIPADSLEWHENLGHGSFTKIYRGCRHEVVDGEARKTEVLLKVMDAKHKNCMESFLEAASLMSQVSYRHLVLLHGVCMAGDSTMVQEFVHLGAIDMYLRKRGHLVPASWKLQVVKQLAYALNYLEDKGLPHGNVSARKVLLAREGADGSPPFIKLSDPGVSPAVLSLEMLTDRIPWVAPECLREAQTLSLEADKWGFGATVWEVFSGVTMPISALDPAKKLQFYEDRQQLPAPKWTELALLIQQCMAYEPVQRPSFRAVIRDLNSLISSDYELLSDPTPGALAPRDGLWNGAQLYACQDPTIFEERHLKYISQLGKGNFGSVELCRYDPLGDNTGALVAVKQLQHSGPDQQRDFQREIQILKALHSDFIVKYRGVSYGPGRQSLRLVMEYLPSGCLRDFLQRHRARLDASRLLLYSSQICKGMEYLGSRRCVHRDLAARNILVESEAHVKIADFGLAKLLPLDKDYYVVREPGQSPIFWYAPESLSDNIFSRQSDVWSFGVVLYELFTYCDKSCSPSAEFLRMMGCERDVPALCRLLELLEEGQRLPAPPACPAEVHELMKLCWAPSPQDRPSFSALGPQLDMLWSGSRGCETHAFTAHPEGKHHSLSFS
Protocol: as §1, §2, §3, §4

[3] = Aqueous Solubility Assay; conditions: PBS buffer pH 7.4; maximum upper limit 1,000 μM
Protocol: Assay 5: Aqueous Solubility Assay
The purpose of this assay was to quantify the solubility of test compounds in pH 4 and pH 7.4 PBS buffers. The assay required 40 μL of 10 mM DMSO test compound solution per desired buffer in addition to 20 μL required to make a test standard. For example, to test a compound in both buffers, 100 μL (2*40 μL+20 μL) of 10 mM DMSO compound stock solution was required.
The standard was created by diluting 20 μL of 10 mM DMSO compound stock solution into 180 μL of methanol and was shaken for five minutes to ensure solution uniformity. […] This 1,000 μM solution was run on an Agilent 1260 LC-MS system by injecting 2 μL in order to obtain the peak area. For the test solutions, 40 μL of 10 mM DMSO compound stock solution, per PBS buffer condition, were dried down into a powder overnight. Once in powder form, 400 μL of the desired PBS buffer was added to the powder and allowed to shake vigorously for four hours. The maximum theoretical concentration for this sample solution was 1,000 μM. After four hours of shaking, the samples were centrifuged for 10 minutes at 3,000 RPM before injecting 2 μL on the same Agilent 1260 LC-MS system to obtain the peak area.
In Table 6 below, A represents a value above 500, B represents a value between 250 and 500, C represents a value between 50 and 250, D represents a value between 10 and 50, and E represents a value below 10.

[4] = test system: IL-2 stimulated pSTAT5 in Tall-1 T cells; experiment: Inhibition of IL-2 Stimulated pSTAT5 in Tall-1 T Cells; format: cell-based; conditions: Tall-1 human T cell line, IL-2 300 ng/mL, AlphaLisa
Protocol: Assay 2: Inhibition of IL-2 Stimulated pSTAT5 in Tall-1 T Cells
The potency of test compounds for inhibition of interleukin-2 (IL-2) stimulated STATS phosphorylation was measured in the Tall-1 human T cell line (DSMZ) using AlphaLisa. Because IL-2 signals through JAK1/3, this assay provides a measure of JAK1/3 cellular potency.
Phosphorylated STATS was measured via the AlphaLISA SureFire Ultra pSTAT5 (Tyr694/699) kit (PerkinElmer). Human T cells from the Tall-1 cell line were cultured in a 37° C., 5% CO2 humidified incubator in RPMI (Life Technologies) supplemented with 15% Heat Inactivated Fetal Bovine Serum (FBS, Life Technologies), 2 mM Glutamax (Life Technologies), 25 mM HEPES (Life Technologies) and 1× Pen/Strep (Life Technologies). Compounds were serially diluted in DMSO and dispensed acoustically to empty wells. Assay media (phenol red-free DMEM (Life Technologies) supplemented with 10% FBS (ATCC)) was dispensed (4 μL/well) and plates shaken at 900 rpm for 10 mins. Cells were seeded at 45,000 cells/well in assay media (4 μL/well), and incubated at 37° C., 5% CO2 for 1 hour, followed by the addition of IL-2 (R&D Systems; final concentration 300 ng/mL) in pre-warmed assay media (4 μL) for 30 minutes. After cytokine stimulation, cells were lysed with 6 ul of 3× AlphaLisa Lysis Buffer (PerkinElmer) containing 1× PhosStop and Complete tablets (Roche). The lysate was shaken at 900 rpm for 10 minutes at room temperature (RT). Phosphorylated STATS was measured via the pSTAT5 AlphaLisa kit (PerkinElmer). Freshly prepared acceptor bead mixture was dispensed onto lysate (51) under green filtered <100 lux light. Plates were shaken at 900 rpm for 2 mins, briefly spun down, and incubated for 2 hrs at RT in the dark. Donor beads were dispensed (5 μL) under green filtered <100 lux light. Plates were shaken at 900 rpm for 2 minutes, briefly spun down, and incubated overnight at RT in the dark. Luminescence was measured with excitation at 689 nm and emission at 570 nm using an EnVision plate r reader (PerkinElmer) under green filtered <100 lux light.
To determine the inhibitory potency of test compounds in response to IL-2, the average emission intensity of beads bound to pSTAT5 was measured in a human T cell line. IC50 values were determined from analysis of the inhibition curves of signal intensity versus compound concentration. Data are expressed as pIC50 (negative decadic logarithm IC50) values (mean±standard deviation).

[5] = Solubility Assay in Organic Excipients; conditions: maximum upper limit 20,000 μM; for Solubility in MCT (mg/mL): medium chain triglycerides (MCT)

Chain of JAK1 (P23458 whole entry): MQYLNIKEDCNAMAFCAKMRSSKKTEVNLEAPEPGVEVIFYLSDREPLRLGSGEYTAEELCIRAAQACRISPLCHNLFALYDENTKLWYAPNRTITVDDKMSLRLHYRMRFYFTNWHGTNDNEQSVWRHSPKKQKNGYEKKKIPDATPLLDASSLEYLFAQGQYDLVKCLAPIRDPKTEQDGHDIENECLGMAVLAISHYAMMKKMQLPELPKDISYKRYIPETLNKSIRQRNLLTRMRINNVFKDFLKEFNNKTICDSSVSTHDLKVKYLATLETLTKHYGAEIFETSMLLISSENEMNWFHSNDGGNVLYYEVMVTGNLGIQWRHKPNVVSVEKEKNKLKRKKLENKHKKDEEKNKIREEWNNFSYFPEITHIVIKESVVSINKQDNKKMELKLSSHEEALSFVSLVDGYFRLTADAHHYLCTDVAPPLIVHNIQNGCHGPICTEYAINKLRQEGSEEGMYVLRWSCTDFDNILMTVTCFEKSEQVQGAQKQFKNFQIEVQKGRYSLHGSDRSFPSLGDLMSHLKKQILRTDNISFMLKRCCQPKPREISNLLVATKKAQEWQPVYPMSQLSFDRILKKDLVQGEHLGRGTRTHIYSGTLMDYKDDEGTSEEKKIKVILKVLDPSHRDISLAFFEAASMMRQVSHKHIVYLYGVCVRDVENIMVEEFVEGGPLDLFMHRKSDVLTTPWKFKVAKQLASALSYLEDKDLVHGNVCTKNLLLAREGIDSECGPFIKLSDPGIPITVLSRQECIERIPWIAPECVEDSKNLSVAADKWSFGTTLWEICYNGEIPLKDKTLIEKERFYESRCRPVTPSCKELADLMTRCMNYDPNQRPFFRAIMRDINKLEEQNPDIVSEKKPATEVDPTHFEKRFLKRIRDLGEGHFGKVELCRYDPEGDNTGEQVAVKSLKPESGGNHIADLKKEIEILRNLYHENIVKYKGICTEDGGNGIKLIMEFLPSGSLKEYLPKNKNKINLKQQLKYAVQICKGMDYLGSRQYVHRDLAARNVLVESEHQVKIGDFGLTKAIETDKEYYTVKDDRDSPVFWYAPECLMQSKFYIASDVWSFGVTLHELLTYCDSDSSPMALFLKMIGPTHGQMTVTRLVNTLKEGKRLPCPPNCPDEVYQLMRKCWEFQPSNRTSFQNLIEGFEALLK

| Structure (SMILES) | JAK 1 (pKi) [1] | JAK 3 (pKi) [2] | Solubility at PH 7.4 (μmol) [3] | Tall-1 IL2 pSTAT5 (pIC50) [4] | Solubility in PEG400 (mg/mL) [5] | Solubility in Diisopropyl adipate (mg/mL) [5] | Solubility in MCT (mg/mL) [5] | Solubility in Propylene glycol (mg/mL) [5] |
| --- | --- | --- | --- | --- | --- | --- | --- | --- |
| CCS(=O)(=O)N1[C@@H]2CCC[C@H]1C[C@H](N(C)c1nc(Nc3cc(C)[nH]n3)cc(C3CCOC(C)(C)C3)n1)C2 (stereo partly drawn) [Compound 2, 6-(2,2-dimethyltetrahydro-2H-pyran-4-yl)-N2-((1R,3s,5S)-9-(ethylsulfonyl)-9-azabicyclo[3.3.1]nonan-3-yl)-N2-methyl-N4-(5-methyl-1H-pyrazol-3-yl)pyrimidine-2,4-diamine] | B (B represents a pKi value between 9 and 10 (Ki between 1 nM and 0.1 nM)) | B (B represents a pKi value between 9 and 10 (Ki between 1 nM and 0.1 nM)) | C (C represents a value between 50 and 250) | A (A represents a pIC50 value ≥8.0) | C (C represents a value below 5) | C (C represents a value below 5) | C (C represents a value below 5) | C (C represents a value below 5) |
| COC(=O)N1[C@@H]2CCC[C@H]1C[C@H](N(C)c1nc(Nc3cc(C)[nH]n3)cc(C3CCOC3)n1)C2 (stereo partly drawn) [Compound 6, Methyl (1R,3s,5S)-3-(methyl(4-((5-methyl-1H-pyrazol-3-yl)amino)-6-(tetrahydrofuran-3-yl)pyrimidin-2-yl)amino)-9-azabicyclo[3.3.1]nonane-9-carboxylate] | A (A represents a pKi value ≥10 (Ki≤0.1 nM)) | C (C represents a pKi value between 8 and 9 (Ki between 10 nM and 1 nM)) | D (D represents a value between 10 and 50) | A (A represents a pIC50 value ≥8.0) | C (C represents a value below 5) | C (C represents a value below 5) | C (C represents a value below 5) | C (C represents a value below 5) |
| CCS(=O)(=O)N1[C@@H]2CCC[C@H]1C[C@H](N(C)c1nc(Nc3cc(C)[nH]n3)cc(OC3COC3)n1)C2 [Compound 34, N^2-((1R,3s,5S)-9-(ethylsulfonyl)-9-azabicyclo[3.3.1]nonan-3-yl)-N2-methyl-N4-(5-methyl-1H-pyrazol-3-yl)-6-(oxetan-3-yloxy)pyrimidine-2,4-diamine] | A (A represents a pKi value ≥10 (Ki≤0.1 nM)) | B (B represents a pKi value between 9 and 10 (Ki between 1 nM and 0.1 nM)) | E (E represents a value below 10) | A (A represents a pIC50 value ≥8.0) | C (C represents a value below 5) | C (C represents a value below 5) | C (C represents a value below 5) | C (C represents a value below 5) |
| CCC(=O)N1[C@@H]2CCC[C@H]1C[C@H](N(C)c1nc(Nc3cc(C)[nH]n3)cc(O[C@@H]3CCOC3)n1)C2 [Compound 17, 1-((1R,3s,5S)-3-(methyl(4-((5-methyl-1H-pyrazol-3-yl)amino)-6-(((R)-tetrahydrofuran-3-yl)oxy)pyrimidin-2-yl)amino)-9-azabicyclo[3.3.1]nonan-9-yl)propan-1-one] | B (B represents a pKi value between 9 and 10 (Ki between 1 nM and 0.1 nM)) | C (C represents a pKi value between 8 and 9 (Ki between 10 nM and 1 nM)) | D (D represents a value between 10 and 50) | A (A represents a pIC50 value ≥8.0) | B (B represents a value between 5 and 10) | A (A represents a value above 10) | C (C represents a value below 5) | A (A represents a value above 10) |
| COC(=O)N1[C@@H]2CCC[C@H]1C[C@H](N(C)c1nc(Nc3cc(C)[nH]n3)cc(C3CCOCC3)n1)C2 [Compound 3, methyl (1R,3s,5S)-3-(methyl(4-((5-methyl-1H-pyrazol-3-yl)amino)-6-(tetrahydro-2H-pyran-4-yl)pyrimidin-2-yl)amino)-9-azabicyclo[3.3.1]nonane-9-carboxylate] | B (B represents a pKi value between 9 and 10 (Ki between 1 nM and 0.1 nM)) | B (B represents a pKi value between 9 and 10 (Ki between 1 nM and 0.1 nM)) | E (E represents a value below 10) | A (A represents a pIC50 value ≥8.0) | C (C represents a value below 5) | C (C represents a value below 5) | C (C represents a value below 5) | C (C represents a value below 5) |
